# Data published in article PMC10893631, “Receptor-based pharmacophore modeling, molecular docking, synthesis and biological evaluation of novel VEGFR-2, FGFR-1, and BRAF multi-kinase inhibitors” (BMC Chemistry, 2024).
# Experiments:
# Experiment in all cases: NCI SRB growth inhibition (single dose 10 µM / five-dose)
# Assay type in all cases: cell-based, human
# [1] = test system: BT-549; details: Homo sapiens; BT-549 (Breast cancer), 10 µM; read-out: GI%
# Summary of the method: (§1)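 Cells plated at 5000–40,000 cells/well by doubling time; time-zero plates TCA-fixed after 24 h. Compounds (DMSO stocks) added at five 10-fold or ½-log concentrations plus control. Adherent cells TCA-fixed, stained with 0.4% SRB in 1% acetic acid; percentage growth from Tz, C and Ti absorbances.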
# [2] = test system: SK-MEL-28; details: Homo sapiens; SK-MEL-28 (Melanoma), 10 µM; read-out: GI%
# Summary of the method: as §1
# [3] = test system: M14; details: Homo sapiens; M14 (Melanoma), 10 µM; read-out: GI%
# Summary of the method: as §1
# [4] = test system: U251; details: Homo sapiens, U-251; U251 (CNS cancer), 10 µM; read-out: GI%
# Summary of the method: as §1
# [5] = test system: K-562; details: Homo sapiens, K562; K-562 (Leukemia), 10 µM; read-out: GI%
# Summary of the method: as §1
# [6] = test system: RXF 393; details: Homo sapiens; RXF 393 (Renal cancer), 10 µM; read-out: GI%
# Summary of the method: as §1
# [7] = test system: SNB-75; details: Homo sapiens; SNB-75 (CNS cancer), 10 µM; read-out: GI%
# Summary of the method: as §1
# [8] = test system: SF-268; details: Homo sapiens; SF-268 (CNS cancer), 10 µM; read-out: GI%
# Summary of the method: as §1
# [9] = test system: RPMI-8226; details: Homo sapiens; RPMI-8226 (Leukemia), 10 µM; read-out: GI%
# Summary of the method: as §1
# [10] = test system: HT29; details: Homo sapiens, HT-29; HT29 (Colon cancer), 10 µM; read-out: GI%
# Summary of the method: as §1
# [11] = test system: UO-31; details: Homo sapiens; UO-31 (Renal cancer), 10 µM; read-out: GI%
# Summary of the method: as §1
# [12] = test system: IGROV1; details: Homo sapiens, IGROV-1; IGROV1 (Ovarian cancer), 10 µM; read-out: GI%
# Summary of the method: as §1
# [13] = test system: MDA-MB-231/ATCC; details: Homo sapiens; MDA-MB-231/ATCC (Breast cancer), 10 µM; read-out: GI%
# Summary of the method: as §1
# [14] = test system: DU-145; details: Homo sapiens; DU-145 (Prostate cancer), 10 µM; read-out: GI%
# Summary of the method: as §1
# [15] = test system: KM12; details: Homo sapiens; KM12 (Colon cancer), 10 µM; read-out: GI%
# Summary of the method: as §1
# [16] = test system: NCI-H226; details: Homo sapiens; NCI-H226 (Non-small cell lung cancer), 10 µM; read-out: GI%
# Summary of the method: as §1
# [17] = test system: SK-OV-3; details: Homo sapiens; SK-OV-3 (Ovarian cancer), 10 µM; read-out: GI%
# Summary of the method: as §1
# [18] = test system: PC-3; details: Homo sapiens; PC-3 (Prostate cancer), 10 µM; read-out: GI%
# Summary of the method: as §1
# [19] = test system: SK-MEL-5; details: Homo sapiens; SK-MEL-5 (Melanoma), 10 µM; read-out: GI%
# Summary of the method: as §1
# [20] = test system: OVCAR-4; details: Homo sapiens; OVCAR-4 (Ovarian cancer), 10 µM; read-out: GI%
# Summary of the method: as §1
# [21] = test system: NCI-H522; details: Homo sapiens; NCI-H522 (Non-small cell lung cancer), 10 µM; read-out: GI%
# Summary of the method: as §1
# [22] = test system: SK-MEL-2; details: Homo sapiens; SK-MEL-2 (Melanoma), 10 µM; read-out: GI%
# Summary of the method: as §1
# [23] = test system: CCRF-CEM; details: Homo sapiens; CCRF-CEM (Leukemia), 10 µM; read-out: GI%
# Summary of the method: as §1
# [24] = test system: OVCAR-3; details: Homo sapiens; OVCAR-3 (Ovarian cancer), 10 µM; read-out: GI%
# Summary of the method: as §1
# [25] = test system: SF-295; details: Homo sapiens; SF-295 (CNS cancer), 10 µM; read-out: GI%
# Summary of the method: as §1
SMILES,inhibition at 10 µM [1],inhibition at 10 µM [2],inhibition at 10 µM [3],inhibition at 10 µM [4],inhibition at 10 µM [5],inhibition at 10 µM [6],inhibition at 10 µM [7],inhibition at 10 µM [8],inhibition at 10 µM [9],inhibition at 10 µM [10],inhibition at 10 µM [11],inhibition at 10 µM [12],inhibition at 10 µM [13],inhibition at 10 µM [14],inhibition at 10 µM [15],inhibition at 10 µM [16],inhibition at 10 µM [17],inhibition at 10 µM [18],inhibition at 10 µM [19],inhibition at 10 µM [20],also measured
"O=C(NN=Cc1cccc(O)c1)c1ccc2[nH]c(-c3ccccc3)nc2c1 [8b, N'-(3-Hydroxybenzylidene)-2-phenyl-1H-benzo[d]imidazole-5-carbohydrazide]",< 5%,< 5%,< 5%,< 5%,21.4%,< 5%,6.56%,16.8%,9.59%,16.4%,21.6%,13%,14.1%,< 5%,19.8%,< 5%,25.6%,11.8%,10.9%,12.4%,inhibition at 10 µM [21]: 38.1%; inhibition at 10 µM [22]: < 5%; inhibition at 10 µM [23]: 54.4%; inhibition at 10 µM [24]: 11.1%; inhibition at 10 µM [25]: < 5%
"COc1cccc(C=NNC(=O)c2ccc3[nH]c(-c4ccccc4)nc3c2)c1 [8c, N'-(3-Methoxybenzylidene)-2-phenyl-1H-benzo[d]imidazole-5-carbohydrazide]",< 5%,20.4%,8.28%,14.3%,41.7%,29.2%,11%,15.1%,81.6%,33.9%,30.6%,10.1%,< 5%,18.4%,26%,19.3%,64%,24.6%,39%,20.1%,inhibition at 10 µM [21]: 26%; inhibition at 10 µM [22]: 19.5%; inhibition at 10 µM [23]: 44.5%; inhibition at 10 µM [24]: 7.38%; inhibition at 10 µM [25]: 18.5%
"COc1ccc(C=NNC(=O)c2ccc3[nH]c(-c4ccccc4)nc3c2)cc1O [8e, N'-(3-Hydroxy-4-methoxybenzylidene)-2-phenyl-1H-benzo[d]imidazole-5-carbohydrazide]",< 5%,28.9%,19.7%,14.6%,26.2%,< 5%,< 5%,16%,23.4%,95.8%,38.2%,22%,< 5%,< 5%,21.9%,11.4%,56.3%,11.5%,39.5%,< 5%,inhibition at 10 µM [21]: 29.4%; inhibition at 10 µM [22]: 8.51%; inhibition at 10 µM [23]: 35.9%; inhibition at 10 µM [24]: 7.25%; inhibition at 10 µM [25]: 10.9%
"COc1ccc(-c2nc3cc(C(=O)NN=Cc4cccc(O)c4)ccc3[nH]2)cc1 [8i, N'-(3-Hydroxybenzylidene)-2-(4-methoxyphenyl)-1H-benzo[d]imidazole-5-carbohydrazide]",32.7%,52.9%,39.1%,32.1%,60.6%,14.5%,17.8%,37.4%,24.8%,74.5%,10.5%,11.2%,22.4%,14%,38.7%,7.75%,54%,34.4%,40.5%,27.1%,inhibition at 10 µM [21]: 43.4%; inhibition at 10 µM [22]: 37.5%; inhibition at 10 µM [23]: 80.8%; inhibition at 10 µM [24]: 8.04%; inhibition at 10 µM [25]: 22%
"COc1ccc(-c2nc3cc(C(=O)NN=Cc4cc(OC)ccc4OC)ccc3[nH]2)cc1 [8m, N'-(2,5-Dimethoxybenzylidene)-2-(4-methoxyphenyl)-1H-benzo[d]imidazole-5-carbohydrazide]",17.2%,5.7%,< 5%,9.71%,22.8%,15.2%,< 5%,9.02%,76.8%,25.4%,9.12%,< 5%,14.3%,< 5%,11.7%,< 5%,< 5%,13.6%,22.3%,8.31%,inhibition at 10 µM [21]: 21.3%; inhibition at 10 µM [22]: 11.1%; inhibition at 10 µM [23]: 45.9%; inhibition at 10 µM [24]: < 5%; inhibition at 10 µM [25]: 19.9%
"O=C(NN=Cc1cccc(O)c1)c1ccc2[nH]c(-c3ccc(Cl)cc3)nc2c1 [8p, 2-(4-Chlorophenyl)-N'-(3-hydroxybenzylidene)-1H-benzo[d]imidazole-5-carbohydrazide]",< 5%,16%,25.4%,75.5%,49.9%,31.6%,7.89%,24.2%,56.7%,19.9%,14.9%,5.71%,45.2%,< 5%,62.7%,30.1%,36.2%,48.8%,69.5%,15.7%,inhibition at 10 µM [21]: 55.8%; inhibition at 10 µM [22]: 24%; inhibition at 10 µM [23]: 71.9%; inhibition at 10 µM [24]: < 5%; inhibition at 10 µM [25]: 11.8%
"COc1ccc(OC)c(C=NNC(=O)c2ccc3[nH]c(-c4ccc(Cl)cc4)nc3c2)c1 [8t, 2-(4-Chlorophenyl)-N'-(2,5-dimethoxybenzylidene)-1H-benzo[d]imidazole-5-carbohydrazide]",25.7%,14.6%,30.9%,25.7%,52.9%,96.5%,27.2%,43%,62.2%,20.3%,31.9%,7.82%,89.7%,52%,23.3%,35.7%,15.1%,58.5%,68.8%,38.9%,inhibition at 10 µM [21]: 40.9%; inhibition at 10 µM [22]: < 5%; inhibition at 10 µM [23]: 56.1%; inhibition at 10 µM [24]: 10.8%; inhibition at 10 µM [25]: 51.9%
